Our source for the EC50, IC50 and outcome values is PubChem BioAssay AID179 (DTP/NCI, 2004).

The source made the active and inactive calls.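 The calls were made as follows: active = compounds giving half or more protection of infected cells from virus-caused growth loss, again on retest; inactive = the rest.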 Where a SMILES comes first, the peptide text is derived from it.

The assay deals with CEM cells HIV-1 protection, formazan growth assay. Nature of the assay: NCI AIDS Antiviral Assay. To be noted: for IC50: measured here: growth of uninfected CEM cells. Put shortly:
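Screen of anti-HIV-1 activity in human CEM cells using a formazan-based growth measurement at five drug concentrations. Hits with 50% or greater protection were repeated, and confirmation required reproducible complete protection.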

For the compound `CNc1ccccc1S(=O)(=O)c1ccccc1Br`, the EC50 was > 200 µM and the IC50 was 18.2 µM.

For the compound `CC1CC(Nc2ccc(Br)cc2)N(C(=O)c2ccc(Br)cc2)O1` (stereo not given), the EC50 is > 200 µM and the IC50 was 17 µM.

As for `O=C1CSC(/C(=C/c2ccccc2)c2nc3ccccc3[nH]2)=N1`, the EC50 was 21.9 µM and the IC50 worked out at 22.4 µM.

With `CCCCCCCCCCCCOCCCCCCCCC/C=C/c1ccc2c(c1)OCCOCCOCCOCCO2`, the EC50 is > 200 µM and the IC50 stood at 15.1 µM.

`O=C1C=C(Nc2ccc(Br)cc2)c2ccccc2C1=O`: the EC50 was > 4.37 µM and the IC50 is > 4.37 µM.

With `Nc1cc(Cl)cc(Cl)c1O`, the EC50 was > 162 µM and the IC50 was determined as 120 µM.

`COc1cc2c3c(c1OC)-c1cc(O)ccc1C[C@H]3NCC2`: the result was inactive.

Consider `CCN(CC)c1ccc2c(c1)Oc1ccc(N(C(C)=O)c3ccccc3)cc1C21OC(=O)c2ccccc21` (stereo not given), for which the EC50 is > 200 µM and the IC50 stood at 6.03 µM.

`c1ccc2c(c1)Cc1ccccc1-c1c-2[nH]c2ccccc12`: the EC50 was > 200 µM and the IC50 stood at 10.5 µM.

In the case of `O=C1c2ccccc2-c2nnc(-c3ccccc3)cc21`, the EC50 is > 100 µM and the IC50 came out at 8.32 µM.

Consider `Cc1ccc(Nc2nc(C)c(C(/C=C/c3ccc(/C=C/C(=N/NC(=O)C[n+]4ccccc4)c4sc(Nc5ccc(C)cc5[N+](=O)[O-])nc4C)cc3)=N\NC(=O)C[n+]3ccccc3)s2)c([N+](=O)[O-])c1`, for which the EC50 was > 35.5 µM and the IC50 is > 35.5 µM.

For `CC1(C)OCC(/C=C\C(O)CC2(C)OCCO2)CO1` (stereo not given), the outcome was inactive.

Take `COc1cc(CSc2ccc(O)cc2)cc(O)c1O`: the EC50 is > 126 µM and the half-maximal inhibitory concentration (IC50) was found to be 22.9 µM.

Take `COc1cc2c(cc1O)C(CSC)Cc1cc(OC)c(OC)cc1N(C)CCC2` (stereo not given): the EC50 was > 200 µM and the IC50 stood at 38.9 µM.

With `CN1CC[C@]2(C)c3ccc(O)cc3CC3CCCC1C32C` (stereo not given in full), the outcome was inactive.

Consider `O=C(CC(=O)Nc1cccc(C(=O)O)c1)Nc1cccc(C(=O)O)c1`, for which the EC50 was > 200 µM and the IC50 was > 200 µM.

Regarding `COc1ccc(NC(=O)CC(=O)n2nc(C)c(N=Nc3ccc(C)c(C)c3)c2C)cc1`, the EC50 is > 200 µM and the IC50 was > 200 µM.

On to `CC[C@@H]1CC2CC3c4[nH]c5ccccc5c4CCN(C2)C31` (stereo not given in full), for which the outcome was inactive.

`COc1cc2ccc3c4cc(OC)c(OCc5ccccc5)cc4cnc3c2cc1OC`: the outcome was inactive.

On to `O=C([CH-]C(=O)c1ccccc1)c1ccccc1.[CH2-]C.[CH2-]C.[Tl+3]`, for which the EC50 is > 53.7 µM and the IC50 is > 53.7 µM.

`O=c1cn[nH]c2cccc(Cl)c12`: the EC50 was > 117 µM and the IC50 was > 117 µM.

Regarding `COC(C(=O)[O][Ge]([CH3])([CH3])[CH3])c1ccccc1` (stereo not given), the EC50 is > 251 µM and the IC50 was > 251 µM.

On to `OCC1OC(n2cnc(C3=NCCCN3)n2)C(O)C1O` (stereo not given), for which the outcome was inactive.

For `COc1ccc(NC(=O)/C(C#N)=C/c2ccc(O)c(O)c2)cc1O`, the EC50 was > 200 µM and the IC50 came out at 16.2 µM.

Regarding `Cc1ccc(-c2cc(=S)ss2)cc1`, the EC50 was > 200 µM and the IC50 amounted to 166 µM.

As for `CC(=O)Nc1ccc(C(=O)NN2C(=O)CSC2c2ccccc2)cc1` (stereo not given), the EC50 was > 72.4 µM and the IC50 was > 72.4 µM.

In the case of `COc1ccc(-c2nc(-c3cc4c(ccc5ccccc54)oc3=O)cs2)cc1`, the EC50 is > 100 µM and the IC50 is > 100 µM.

For the compound `CC(=O)c1sc2c(c1OC(=O)c1ccccc1)c(=O)n(-c1ccccc1)c(=S)n2-c1ccccc1`, the EC50 was > 2 µM and the IC50 came out at 0.0631 µM.

For `CC(=O)[O-].[O-]c1c(Cl)cc(Cl)cc1/C=N/Nc1ccccn1.[Zn+2]`, the outcome was inactive.

On to `CC(=O)N(C)c1ccc2c(ccc[n+]2[O-])c1[N+](=O)[O-]`, for which the EC50 is > 955 µM and the IC50 is > 955 µM.

Turning to `COC1OC(CO)C(N=C(C)C)C1O` (stereo not given), the EC50 was > 200 µM and the IC50 is > 200 µM.

In the case of `Cc1cc(S(=O)(=O)Nc2nnc3c4ccccc4ccn23)c(S)cc1Cl`, the concentration giving a half-maximal response (EC50) is 155 µM and the concentration for half-maximal inhibition (IC50) was > 200 µM.

As to `O=C(C[P+](c1ccccc1)(c1ccccc1)c1ccccc1)c1ccc(Br)cc1`, the EC50 is > 200 µM and the IC50 was 14.8 µM.

`Fc1ccc(N2C(=S)SC(=Nc3ccccc3)C2=Nc2ccccc2)cc1`: the EC50 is > 200 µM and the IC50 came to 23.4 µM.

Consider `Cc1ccc(NC(=O)COC(=O)c2cccc3c(=O)c4ccccc4[nH]c23)cc1`, for which the outcome was inactive.

Take `COc1ccc(C2(CC(C)C)CCN(S(=O)(=O)c3ccc(C)cc3)C2)cc1OC` (stereo not given): the EC50 is > 178 µM and the IC50 came out at 20 µM.

With `NC(=O)C1CCCN1C(=O)C(N)Cc1ccccc1` (stereo not drawn) (H-Phe-Pro-NH2; configuration not given here), the EC50 was > 200 µM and the IC50 is > 200 µM.

`CN1C2(c3ccccc3)C(C(=O)c3ccccc3)=C(C(=O)c3ccccc3)C1(c1ccccc1)c1c(-c3ccccc3)sc(-c3ccccc3)c12`: the result was inactive.

In the case of `CN(C)CCNC(=O)c1cccc(NC(=O)c2ccccc2)c1[N+](=O)[O-]`, the EC50 is > 200 µM and the IC50 is > 200 µM.

As to `CCCCc1ccc(OC2OC(CO)C(O)C(O)C2O)cc1` (stereo not given), the EC50 was > 288 µM.

With `CNC(=S)SSSSC(=S)NC`, the outcome was inactive.

Consider `Cc1nc2ccc(Cl)cc2c2c1CCS2`, for which the EC50 is > 200 µM and the IC50 stood at 117 µM.

With `COC(=O)c1cc(C(=O)c2cc(C)c(OC)c(C(=O)OC)c2)cc(C)c1OC`, the EC50 was > 200 µM and the IC50 was found to be 66.1 µM.

Turning to `CN(C)CCn1c(=O)c2ccc(NCCN3CCNCC3)c3c(=O)c4ccccc4n(c1=O)c23`, the EC50 is > 200 µM and the IC50 worked out at 0.0631 µM.

For H-HSFNCGGEFFY-OH, the result was inactive.

As for `COC12C=CC(CC1)C(C)(C)C2O` (stereo not given), the EC50 is > 200 µM, the outcome was inactive and the IC50 was > 200 µM.

As to `Fc1ccc(N=NN2CCCC2)cc1`, the EC50 is > 200 µM and the IC50 stood at 123 µM.

In the case of `Cn1c(=O)cc(N2CCCC2)[nH]c1=O`, the EC50 is > 200 µM and the IC50 was > 200 µM.

`CSc1n(CC(=O)OC(C)(C)C)nc[n+]1N`: the EC50 was > 200 µM and the IC50 was > 200 µM.

For `O=[N+]([O-])c1ccc2[nH]c(=S)n(/C=C(/c3ccc(Cl)cc3)S(=O)(=O)Cc3ccc(Cl)cc3)c2c1`, the EC50 is > 200 µM and the IC50 was determined as 102 µM.

In the case of `C=C1C(OC(=O)CC(c2ccccc2)N(C)C)C[C@H](OC(C)=O)[C@]2(C)C1C(O)[C@@H]1CC(OC(C)=O)C(C)=C([C@@H](OC(C)=O)C2OC(C)=O)C1(C)C` (stereo not given in full), the outcome was inactive.

`COc1cc(OC)cc(OCc2ccc3nc(-c4ccccc4)c(Cl)nc3c2)c1`: the EC50 was > 100 µM and the IC50 is > 100 µM.

With `O=C1C[C@@H]2[C@@H](CCC23CCCC3)N1`, the result was inactive.

Take `O=C1Nc2cccnc2NC2=C1CSC2`: the EC50 is > 200 µM and the IC50 is > 200 µM.

Turning to `COc1cc2c(cc1C1=NC(C)(C)CO1)OCO2`, the EC50 is > 1000 µM and the IC50 is > 1000 µM.

Turning to `CCN(CC)CCSc1c2cc(OC)ccc2nc2ccc(OC)cc12`, the EC50 is > 200 µM and the IC50 was found to be 2.95 µM.

On to `CCOC(=O)/C=C/C(=O)O/C=C/[N+](=O)[O-]`, for which the EC50 was 182 µM and the IC50 is > 200 µM.

For the compound `C/C(O)=C(\C=N\C(N)=S)C(=O)Nc1ccc(Cl)cc1`, the EC50 is > 200 µM and the IC50 was > 100 µM.

Take `Oc1cc(O)c(C2c3ccc(O)cc3OC(c3ccc(O)c(O)c3)C2O)c(O)c1` (stereo not given): the EC50 is > 46.8 µM and the IC50 was > 46.8 µM.

For `Cc1cc(Nc2ccc(S(=O)(=O)O)cc2)c2ccccc2n1`, the EC50 was > 200 µM and the IC50 was > 200 µM.

On to `Cc1ccc(/C=N/Nc2cnccn2)s1`, for which the EC50 was > 200 µM and the IC50 was > 200 µM.

Consider `CCOC(=O)c1nc2ccc(C(F)(F)F)cc2nc1Nc1ccc(OC)c(OC)c1`, for which the EC50 is > 200 µM and the IC50 was > 200 µM.

In the case of `CC(=O)[C@@]12OC(C)(c3ccco3)O[C@@H]1C[C@H]1[C@@H]3CCC4=CC(=O)CC[C@]4(C)[C@H]3CC[C@@]12C` (stereo not given in full), the EC50 was > 200 µM and the IC50 stood at 158 µM.

Consider `Cc1ccc2nc(C(C)C)c(=O)[nH]c2c1`, for which the EC50 is > 200 µM and the half-maximal inhibitory concentration (IC50) is > 200 µM.

Turning to `CC1=NN(C(=O)c2ccc(Cl)cc2)C(=O)/C1=C/c1ccco1`, the EC50 is > 22.9 µM and the IC50 was > 22.9 µM.

In the case of `CCOC(=O)c1ccc(CS(=O)(=O)c2ccc([N+](=O)[O-])cc2)c([N+](=O)[O-])c1`, the EC50 was > 91.2 µM and the IC50 is 60.3 µM.

As to `CC(=O)O[C@@H]1CC(C)C2CC2C2=C(C(O)OC2O)[C@@H]1C(C)CCC=C(C)C` (stereo not given in full), the EC50 was > 69.2 µM and the IC50 was 58.9 µM.

As to `C=C(C)C1CC2=C(O1)C(=O)c1ccccc1C2=O` (stereo not given), the EC50 is > 200 µM and the 50% inhibitory concentration (IC50) is 2 µM.

`NNC(=O)Cn1c2ccc(Br)cc2c2nc3ccccc3nc21`: the EC50 is > 200 µM and the IC50 is 28.2 µM.

Take `C[C@H](CCC(=O)O)[C@H]1CC[C@H]2[C@@H]3[C@H](O)[C@H](O)[C@@H]4C[C@H](O)CC[C@]4(C)[C@H]3CC[C@]12C`: the EC50 is > 200 µM and the 50% inhibitory concentration (IC50) was determined as 72.4 µM.

Take `COC(=O)C(c1ccccc1)C(SCc1ccccc1)c1ccccc1` (stereo not given): the EC50 was > 200 µM and the IC50 was > 200 µM.

Consider `CCOc1ccc(NC(=S)/N=C/C(C(=O)Nc2ccccc2C)=C(\C)O)cc1`, for which the EC50 was > 200 µM and the IC50 is > 200 µM.

On to `O=[N+]([O-])c1[nH]cnc1S`, for which the EC50 is > 200 µM and the IC50 was > 200 µM.

With `c1ccc(-c2nnc3oc(-c4cccs4)nn23)cc1`, the EC50 was > 100 µM and the IC50 is > 100 µM.

Usually EC50 stands for the concentration giving half of the maximal effect. For orientation: IC50 means the concentration that gives 50% inhibition. A lower IC50 goes with inhibition by little substance.
